The values that follow come from article PMC4619123 (Virology, 2015).

In the test the target is JAK1 (Homo sapiens, UniProt P23458). Briefly: ADP-Glo luminescent kinase assay, recombinant JAK1, Poly E4Y1 substrate, […] ATP. The format is biochemical. For orientation: ADP-Glo first removes unused ATP, then detects ADP through luciferase.

pIC50: −log10 of the molar value.

JAK1, sequence (P23458 whole entry): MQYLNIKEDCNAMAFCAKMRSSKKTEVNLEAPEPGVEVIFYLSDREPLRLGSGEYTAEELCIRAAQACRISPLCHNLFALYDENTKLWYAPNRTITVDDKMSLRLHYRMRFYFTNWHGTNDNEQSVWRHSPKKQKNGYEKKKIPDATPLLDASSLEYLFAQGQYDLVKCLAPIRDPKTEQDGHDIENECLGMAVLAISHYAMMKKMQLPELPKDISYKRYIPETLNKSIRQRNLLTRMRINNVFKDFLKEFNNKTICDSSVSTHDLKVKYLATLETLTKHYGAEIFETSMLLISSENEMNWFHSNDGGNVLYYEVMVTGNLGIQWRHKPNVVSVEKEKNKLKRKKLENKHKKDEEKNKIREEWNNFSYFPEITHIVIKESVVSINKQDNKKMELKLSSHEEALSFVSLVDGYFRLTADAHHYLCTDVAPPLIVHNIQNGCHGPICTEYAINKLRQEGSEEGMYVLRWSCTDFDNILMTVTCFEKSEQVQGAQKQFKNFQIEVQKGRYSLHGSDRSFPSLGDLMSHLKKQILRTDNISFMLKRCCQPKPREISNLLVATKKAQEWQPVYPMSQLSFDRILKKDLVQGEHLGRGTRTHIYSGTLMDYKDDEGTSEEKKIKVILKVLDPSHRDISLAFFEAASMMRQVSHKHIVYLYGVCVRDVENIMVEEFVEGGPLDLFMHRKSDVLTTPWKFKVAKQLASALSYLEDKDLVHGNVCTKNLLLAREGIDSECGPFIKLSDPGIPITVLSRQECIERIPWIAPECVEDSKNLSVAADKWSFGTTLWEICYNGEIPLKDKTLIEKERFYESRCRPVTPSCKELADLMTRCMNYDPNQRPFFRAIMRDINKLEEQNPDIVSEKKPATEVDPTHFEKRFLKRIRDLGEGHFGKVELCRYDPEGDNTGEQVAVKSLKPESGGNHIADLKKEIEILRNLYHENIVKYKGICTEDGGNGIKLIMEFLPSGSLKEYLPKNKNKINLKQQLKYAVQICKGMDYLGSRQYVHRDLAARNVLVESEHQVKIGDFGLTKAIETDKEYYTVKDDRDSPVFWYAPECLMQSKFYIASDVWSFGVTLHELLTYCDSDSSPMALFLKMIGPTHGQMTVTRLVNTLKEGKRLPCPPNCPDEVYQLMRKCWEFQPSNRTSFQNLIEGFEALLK

A word on the pIC50: it is the IC50 on a negative log10 scale, so that one unit is a factor of ten. Consider `NC(=O)Nc1sc(-c2ccc(F)cc2)cc1C(N)=O` [TPCA-1, 2-[(aminocarbonyl)amino]-5-(4-fluorophenyl)-3-thiophenecarboxamide], for which the negative logarithm of the IC50 (pIC50) is 7.36.
